Experiments:
NK cells (CD56+CD3−) = assay: NK cell proliferation in PBMCs, CellTrace Violet dilution; assay type: cell-based, human
Description: FIGS. 2A-2H illustrates that cam1615B7-H3 TriKE induces potent, and specific, natural killer (NK) cell proliferation. Peripheral blood mononuclear cells (PBMCs) were CellTrace Violet labeled and incubated for seven days at 5 nM equimolar concentrations of rhIL-15 or cam1615B7-H3 TriKE. On day 7, the cells were harvested and stained for flow cytometric evaluation. […] FIG. 2B is a graph illustrating pooled data showing the overall proportion of NK cells that proliferated. FIG. 2C is a graph illustrating pooled data showing the proportion of NK cells that highly proliferated (measured as proliferation beyond three divisions). FIG. 2D is a graph illustrating pooled data showing NK cell counts in the cultures (N=9). FIG. 2E is a representative histogram showing T cell (CD56− CD3+) proliferation. FIG. 2F is a graph illustrating pooled data showing the overall proportion of T cells proliferated. FIG. 2G is a graph illustrating pooled data showing the proportion of T cells highly proliferated. […]
The wild-type IL-15 moiety in the cam1615B7-H3 TriKE was designed to induce targeted delivery of a proliferative signal to NK cells. […] At the end of the seven days, cells were harvested and proliferation was evaluated by gating on CD56+CD3− cells. […] Since IL-15 acts on both NK cells and T cells, specificity was evaluated next by gating on T cells (CD56-CD3+). […]

OVCAR8 cells = assay: IncuCyte real-time tumor-killing assay, OVCAR8; assay type: cell-based, human; settings: enriched NK cells, E:T 2:1, 30 nM, 48 h; vs controls
Description: Healthy donor or ovarian cancer PBMC cells were incubated with ovarian tumor targets at 2:1 E:T ratio for 4 hrs with 30 nM TriKE or control condition. FIG. 30A is a graph illustrating pooled proportion of NK cells from healthy donors expressing CD107a+ (degranulation) against OVCAR8 targets (N=8). FIG. 30B is a graph illustrating pooled proportion of NK cells from healthy donors expressing IFNγ cytokine production against OVCAR8 targets (N=8). FIG. 30C is a graph illustrating pooled proportion of NK cells from healthy donors expressing CD107a+ (degranulation) against OVCAR3 targets (N=4). […] FIG. 30I is a graph illustrating that tumor killing was evaluated using IncuCyte imaging assay. […] The percentage of Live (Nuclight Red+Caspase 3/7−) tumor cells was quantified over a 48-h period and normalized to tumor alone. Readings were obtained every 15 min (representative of four separate experiments). * p<0.05, ** p<0.01, *** p<0.001, and **** p<0.0001.
Tumor killing was evaluated in real-time using the IncuCyte platform. […] Caspase-3/7 green dye (Sartorious, Ann Arbor, MI, USA) was added to pick up dying cells that have not yet lost NuclightRed fluorescence. […] Images from three technical replicates were taken every 15 min for 48 h using a 4× objective lens and then analyzed using IncuCyte™ Basic Software v2018A (Sartorious). […]

cam1615B7-H3: second-generation TriKE: humanized camelid anti-CD16 VHH, human wild-type IL-15, anti-B7-H3 mAb 376.96 scFv; SEQ ID NO:1
overall NK cell proliferation (NK cells (CD56+CD3−); PBMCs, 7 days, 5 nM equimolar): overall increase in proliferation that was similar in amplitude to that induced by rhIL-15
NK cell proliferation (3 or more rounds of division) vs IL-15 alone (NK cells (CD56+CD3−); compared to IL-15 alone): more potent at inducing NK cell proliferation
killing of OVCAR8 tumor cells over two days (OVCAR8 cells): robust and rapid tumor killing

Source: patent US20250145715A1, “B7-H3 TARGETING FUSION PROTEINS AND METHODS OF USE THEREOF” (GT Biopharma, Inc., priority 2021, published 2025)
